The text below walks through data of US20090306074A1, “THIAZOLIDINEDIONE DERIVATIVES AS P13 KINASE INHIBITORS” (priority 2006, published 2009).

Like-named read-outs stand apart in the source and are kept apart here.

Experiment [1] deals with Class I PI3-kinases. The note with it: cited from earlier work.
Experiment [2] has as its target CK2 protein kinase (Homo sapiens, UniProt P68400). Particulars: cited from earlier work.
In experiment [3] the target is T1, PI3Kα (Homo sapiens, UniProt P42336).
T1 construct: His
T1 sequence (P42336 whole entry): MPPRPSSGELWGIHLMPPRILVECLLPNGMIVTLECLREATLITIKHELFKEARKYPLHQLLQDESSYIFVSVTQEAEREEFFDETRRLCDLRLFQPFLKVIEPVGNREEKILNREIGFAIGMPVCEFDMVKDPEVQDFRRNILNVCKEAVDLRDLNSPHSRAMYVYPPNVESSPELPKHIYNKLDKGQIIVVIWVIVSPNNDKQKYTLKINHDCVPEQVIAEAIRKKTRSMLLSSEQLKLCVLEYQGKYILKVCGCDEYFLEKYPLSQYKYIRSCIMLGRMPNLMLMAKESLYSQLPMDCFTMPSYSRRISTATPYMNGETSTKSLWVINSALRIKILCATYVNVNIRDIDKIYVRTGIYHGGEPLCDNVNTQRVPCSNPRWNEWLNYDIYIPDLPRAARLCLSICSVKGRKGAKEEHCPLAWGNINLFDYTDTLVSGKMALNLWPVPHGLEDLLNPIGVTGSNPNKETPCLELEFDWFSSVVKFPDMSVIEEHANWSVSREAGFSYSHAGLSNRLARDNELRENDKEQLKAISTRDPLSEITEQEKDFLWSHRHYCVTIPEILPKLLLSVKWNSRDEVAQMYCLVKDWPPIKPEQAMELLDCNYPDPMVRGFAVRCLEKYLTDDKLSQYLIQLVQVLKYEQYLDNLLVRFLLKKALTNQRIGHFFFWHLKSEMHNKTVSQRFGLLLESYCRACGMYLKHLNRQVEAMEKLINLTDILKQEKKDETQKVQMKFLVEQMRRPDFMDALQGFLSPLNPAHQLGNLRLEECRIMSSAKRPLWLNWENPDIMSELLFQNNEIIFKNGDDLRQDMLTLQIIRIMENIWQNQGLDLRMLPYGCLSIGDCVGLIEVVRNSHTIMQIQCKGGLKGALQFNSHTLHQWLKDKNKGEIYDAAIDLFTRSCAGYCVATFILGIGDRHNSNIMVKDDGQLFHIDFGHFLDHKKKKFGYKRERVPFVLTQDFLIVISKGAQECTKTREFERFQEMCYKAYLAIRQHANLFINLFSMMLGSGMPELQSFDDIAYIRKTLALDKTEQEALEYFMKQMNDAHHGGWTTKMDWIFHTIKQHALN
T1 sequence (P27986 whole entry partner): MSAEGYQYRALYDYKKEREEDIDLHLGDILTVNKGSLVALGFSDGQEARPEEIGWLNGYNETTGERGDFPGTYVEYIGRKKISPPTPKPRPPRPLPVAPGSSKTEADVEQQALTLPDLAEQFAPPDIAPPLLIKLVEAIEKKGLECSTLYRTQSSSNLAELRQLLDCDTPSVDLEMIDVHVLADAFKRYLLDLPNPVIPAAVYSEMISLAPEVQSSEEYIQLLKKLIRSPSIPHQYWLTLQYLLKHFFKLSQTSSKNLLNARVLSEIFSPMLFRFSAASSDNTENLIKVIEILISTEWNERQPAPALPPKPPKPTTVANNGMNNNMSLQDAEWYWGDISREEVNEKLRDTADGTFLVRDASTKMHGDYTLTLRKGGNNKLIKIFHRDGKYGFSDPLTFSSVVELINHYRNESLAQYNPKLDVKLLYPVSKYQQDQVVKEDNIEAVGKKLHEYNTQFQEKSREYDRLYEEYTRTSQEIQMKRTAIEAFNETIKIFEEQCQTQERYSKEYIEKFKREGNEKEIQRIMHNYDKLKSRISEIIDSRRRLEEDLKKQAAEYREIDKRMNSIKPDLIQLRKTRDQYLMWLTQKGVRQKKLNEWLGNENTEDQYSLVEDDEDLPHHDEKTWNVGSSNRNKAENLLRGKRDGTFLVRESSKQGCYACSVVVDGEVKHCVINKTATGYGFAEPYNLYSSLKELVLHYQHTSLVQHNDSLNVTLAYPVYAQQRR
The experiment is described as follows: PI3K Alpha Leadseeker SPA Assay. In kind it is biochemical. The note with it: His-p110/p85 PI3K alpha, P33-ATP, PEI-PS Leadseeker beads; read-out: IC50 against PI3Kα. As to the method:
PI3K Alpha Leadseeker SPA Assay
Compounds of the present invention were tested according to the following assays and found as inhibitors of PI3 kinases, particularly PI3Kα. The activities (IC50) range from 1 nM to 500 μM against PI3Kα.
SPA imaging beads are microspheres containing scintillant which emit light in the red region of the visible spectrum. As a result, these beads are ideally suited to use with a CCD imager such as the Viewlux. The Leadseeker beads used in this system are polystyrene beads that have been coupled with polyethyleneimine. When added to the assay mixture, the beads absorb both the substrate (PIP2) and product (PIP3). Adsorbed P^33-PIP3 will cause an increase in signal, measured as ADUs (analog to digital units). This protocol details the use of the PEI-PS Leadseeker beads for assays using His-p110/p85 PI3K alpha.
Solid compounds are typically plated with 0.1 μl of 100% DMSO in all wells (except column 6 and 18) of a 384-well, flat bottom, low volume plate (Greiner 784075). The compounds are serially diluted (3-fold in 100% DMSO) across the plate from column 1 to column 12 and column 13 to column 24 and leave column 6 and 18 containing only DMSO to yield 11 concentrations for each test compound. […] The signal is determined using a Viewlux detector and is then imported into curve fitting software (Activity Base) for construction of concentration response curves. […]

Sequence of CK2 protein kinase (P68400 whole entry): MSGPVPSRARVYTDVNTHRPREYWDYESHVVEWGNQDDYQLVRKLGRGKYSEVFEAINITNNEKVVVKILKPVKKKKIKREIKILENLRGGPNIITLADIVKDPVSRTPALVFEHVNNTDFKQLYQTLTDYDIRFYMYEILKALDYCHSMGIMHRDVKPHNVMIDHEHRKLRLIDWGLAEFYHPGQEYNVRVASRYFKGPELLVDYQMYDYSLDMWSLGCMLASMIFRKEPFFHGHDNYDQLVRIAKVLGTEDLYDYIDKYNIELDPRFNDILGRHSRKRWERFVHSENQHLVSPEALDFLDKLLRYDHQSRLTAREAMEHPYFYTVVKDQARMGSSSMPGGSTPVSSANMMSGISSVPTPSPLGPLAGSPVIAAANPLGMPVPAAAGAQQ

Usually IC50 stands for the concentration that gives 50% inhibition. In the case of `COC[C@H]1OC(=O)c2coc3c2[C@@]1(C)C1=C(C3=O)[C@@H]2CCC(=O)[C@@]2(C)C[C@H]1OC(C)=O` [wortmannin], in experiment [1] (read-out: IC50 values against each of the various Class I PI3-kinases), the IC50 is 0.001 to 0.01 µM.

Consider `O=c1cc(N2CCOCC2)oc2c(-c3ccccc3)cccc12` [LY294002], for which the results for the IC50 in experiment [1] (read-out: IC50 values against each of these PI3-kinases) and in experiment [2] were 15 to 20 µM and 5 to 10 µM, respectively.

For `O=C1NC(=O)/C(=C/c2ccc3nccc(-c4ccncc4)c3c2)S1` [Example 1, (5Z)-5-{[4-(4-pyridinyl)-6-quinolinyl]methylidene}-1,3-thiazolidine-2,4-dione], the IC50 in experiment [3] is 0.001 µM.
